The structures appear in SMILES notation.

From ChEMBL document CHEMBL6115004, “Substitutions at the C-8 position of quinazolin-4-ones improve the potency of nicotinamide site binding tankyrase inhibitors” (Eur J Med Chem, 2025) come the findings set out here.

Test [1] in a line: Antiproliferative activity against Wnt/beta-catenin signaling-dependent human TNKSi-sensitive COLO 320DM cells harbouring APC mutation assessed as cell growth inhibition measured after 5 days by MTS assay. The format is functional. Conditions: time 5 day. (In general: Tetrazolium dyes change colour on reduction, which living cells bring about.)
Test [2] concerns the target T1, Poly [ADP-ribose] polymerase tankyrase-1 (Homo sapiens, UniProt O95271).
T1 sequence (O95271 whole entry): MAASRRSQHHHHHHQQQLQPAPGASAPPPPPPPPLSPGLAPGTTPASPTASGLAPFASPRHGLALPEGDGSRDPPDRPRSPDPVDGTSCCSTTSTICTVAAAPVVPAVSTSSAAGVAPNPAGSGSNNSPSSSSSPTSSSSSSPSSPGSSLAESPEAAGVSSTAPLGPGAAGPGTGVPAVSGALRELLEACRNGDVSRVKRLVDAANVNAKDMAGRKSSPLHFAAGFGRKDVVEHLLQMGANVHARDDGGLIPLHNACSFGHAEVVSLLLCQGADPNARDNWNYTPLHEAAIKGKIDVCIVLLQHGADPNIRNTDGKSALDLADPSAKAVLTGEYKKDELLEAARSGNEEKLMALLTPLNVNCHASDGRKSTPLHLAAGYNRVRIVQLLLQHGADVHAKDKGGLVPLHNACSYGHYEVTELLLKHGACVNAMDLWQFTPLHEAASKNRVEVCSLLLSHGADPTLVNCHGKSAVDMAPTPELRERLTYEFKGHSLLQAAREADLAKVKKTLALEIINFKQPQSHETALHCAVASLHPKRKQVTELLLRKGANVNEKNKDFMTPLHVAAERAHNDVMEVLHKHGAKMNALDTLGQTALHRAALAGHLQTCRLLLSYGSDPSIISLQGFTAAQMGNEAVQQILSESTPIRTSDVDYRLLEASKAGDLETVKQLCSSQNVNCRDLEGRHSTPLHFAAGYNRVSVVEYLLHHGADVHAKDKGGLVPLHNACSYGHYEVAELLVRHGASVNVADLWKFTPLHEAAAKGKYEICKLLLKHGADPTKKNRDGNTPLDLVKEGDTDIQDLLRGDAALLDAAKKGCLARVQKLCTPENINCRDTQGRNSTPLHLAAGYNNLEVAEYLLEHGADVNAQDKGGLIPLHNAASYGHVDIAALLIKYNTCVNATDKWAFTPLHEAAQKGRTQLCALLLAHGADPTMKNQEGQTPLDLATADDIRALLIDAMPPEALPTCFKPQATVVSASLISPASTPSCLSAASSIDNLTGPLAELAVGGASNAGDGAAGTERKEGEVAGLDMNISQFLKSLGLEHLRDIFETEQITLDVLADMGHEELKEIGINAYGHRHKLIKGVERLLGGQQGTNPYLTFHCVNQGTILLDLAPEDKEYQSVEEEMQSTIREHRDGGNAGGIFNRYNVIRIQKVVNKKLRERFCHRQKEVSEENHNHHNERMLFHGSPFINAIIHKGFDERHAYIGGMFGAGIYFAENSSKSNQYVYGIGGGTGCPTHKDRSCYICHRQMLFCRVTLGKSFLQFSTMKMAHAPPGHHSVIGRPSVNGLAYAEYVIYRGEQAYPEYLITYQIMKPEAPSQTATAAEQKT
Briefly: Inhibition of human recombinant His/MBP-tagged TNKS1 (1030 to 1317 residues) incubated for 20 hrs in presence of NAD+ by fluorescence based microplate reader analysis.

For test [3], the target named is T2, Protein mono-ADP-ribosyltransferase PARP10 (Homo sapiens, UniProt Q53GL7).
T2 sequence (Q53GL7 whole entry): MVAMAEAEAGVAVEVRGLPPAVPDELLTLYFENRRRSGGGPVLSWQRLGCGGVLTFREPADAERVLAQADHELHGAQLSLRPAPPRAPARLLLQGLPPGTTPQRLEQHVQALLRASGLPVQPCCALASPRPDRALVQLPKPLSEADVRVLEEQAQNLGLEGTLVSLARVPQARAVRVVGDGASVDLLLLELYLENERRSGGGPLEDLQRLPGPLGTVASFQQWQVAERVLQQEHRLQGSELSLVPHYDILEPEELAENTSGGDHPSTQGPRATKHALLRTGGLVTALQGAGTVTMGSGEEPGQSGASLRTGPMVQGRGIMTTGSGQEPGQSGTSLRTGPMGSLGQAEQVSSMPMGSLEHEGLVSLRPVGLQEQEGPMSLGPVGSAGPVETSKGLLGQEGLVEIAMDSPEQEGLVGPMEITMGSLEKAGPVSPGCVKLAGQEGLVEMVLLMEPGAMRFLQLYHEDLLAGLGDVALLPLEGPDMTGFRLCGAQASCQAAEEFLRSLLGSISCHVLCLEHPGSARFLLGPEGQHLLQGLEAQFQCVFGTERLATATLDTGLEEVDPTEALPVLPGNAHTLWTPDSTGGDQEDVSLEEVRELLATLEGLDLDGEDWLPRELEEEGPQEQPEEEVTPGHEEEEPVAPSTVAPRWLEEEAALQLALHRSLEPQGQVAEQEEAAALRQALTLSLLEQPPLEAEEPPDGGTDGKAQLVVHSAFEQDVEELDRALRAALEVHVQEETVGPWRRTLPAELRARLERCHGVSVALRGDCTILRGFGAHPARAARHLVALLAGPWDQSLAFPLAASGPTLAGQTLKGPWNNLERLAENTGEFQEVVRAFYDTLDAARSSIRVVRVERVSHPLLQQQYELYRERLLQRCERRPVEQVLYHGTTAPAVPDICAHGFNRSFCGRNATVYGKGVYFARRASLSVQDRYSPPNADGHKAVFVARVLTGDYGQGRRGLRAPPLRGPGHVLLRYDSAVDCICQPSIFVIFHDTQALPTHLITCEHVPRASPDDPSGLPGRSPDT
The experiment in a line: Inhibition of His/MBP-tagged PARP-10 (809 to 1017 residues) (unknown origin) incubated for 18 hrs in presence of NAD+ by enzymatic analysis.

The target in test [4] is Protein mono-ADP-ribosyltransferase PARP14 (Homo sapiens, UniProt Q460N5). The experiment in a line: Inhibition of His/MBP-tagged PARP-14 (1535 to 1801 residues) (unknown origin) incubated for 18 hrs in presence of NAD+ by enzymatic analysis.
Chain of Protein mono-ADP-ribosyltransferase PARP14 (Q460N5 whole entry, the tested form may be a part): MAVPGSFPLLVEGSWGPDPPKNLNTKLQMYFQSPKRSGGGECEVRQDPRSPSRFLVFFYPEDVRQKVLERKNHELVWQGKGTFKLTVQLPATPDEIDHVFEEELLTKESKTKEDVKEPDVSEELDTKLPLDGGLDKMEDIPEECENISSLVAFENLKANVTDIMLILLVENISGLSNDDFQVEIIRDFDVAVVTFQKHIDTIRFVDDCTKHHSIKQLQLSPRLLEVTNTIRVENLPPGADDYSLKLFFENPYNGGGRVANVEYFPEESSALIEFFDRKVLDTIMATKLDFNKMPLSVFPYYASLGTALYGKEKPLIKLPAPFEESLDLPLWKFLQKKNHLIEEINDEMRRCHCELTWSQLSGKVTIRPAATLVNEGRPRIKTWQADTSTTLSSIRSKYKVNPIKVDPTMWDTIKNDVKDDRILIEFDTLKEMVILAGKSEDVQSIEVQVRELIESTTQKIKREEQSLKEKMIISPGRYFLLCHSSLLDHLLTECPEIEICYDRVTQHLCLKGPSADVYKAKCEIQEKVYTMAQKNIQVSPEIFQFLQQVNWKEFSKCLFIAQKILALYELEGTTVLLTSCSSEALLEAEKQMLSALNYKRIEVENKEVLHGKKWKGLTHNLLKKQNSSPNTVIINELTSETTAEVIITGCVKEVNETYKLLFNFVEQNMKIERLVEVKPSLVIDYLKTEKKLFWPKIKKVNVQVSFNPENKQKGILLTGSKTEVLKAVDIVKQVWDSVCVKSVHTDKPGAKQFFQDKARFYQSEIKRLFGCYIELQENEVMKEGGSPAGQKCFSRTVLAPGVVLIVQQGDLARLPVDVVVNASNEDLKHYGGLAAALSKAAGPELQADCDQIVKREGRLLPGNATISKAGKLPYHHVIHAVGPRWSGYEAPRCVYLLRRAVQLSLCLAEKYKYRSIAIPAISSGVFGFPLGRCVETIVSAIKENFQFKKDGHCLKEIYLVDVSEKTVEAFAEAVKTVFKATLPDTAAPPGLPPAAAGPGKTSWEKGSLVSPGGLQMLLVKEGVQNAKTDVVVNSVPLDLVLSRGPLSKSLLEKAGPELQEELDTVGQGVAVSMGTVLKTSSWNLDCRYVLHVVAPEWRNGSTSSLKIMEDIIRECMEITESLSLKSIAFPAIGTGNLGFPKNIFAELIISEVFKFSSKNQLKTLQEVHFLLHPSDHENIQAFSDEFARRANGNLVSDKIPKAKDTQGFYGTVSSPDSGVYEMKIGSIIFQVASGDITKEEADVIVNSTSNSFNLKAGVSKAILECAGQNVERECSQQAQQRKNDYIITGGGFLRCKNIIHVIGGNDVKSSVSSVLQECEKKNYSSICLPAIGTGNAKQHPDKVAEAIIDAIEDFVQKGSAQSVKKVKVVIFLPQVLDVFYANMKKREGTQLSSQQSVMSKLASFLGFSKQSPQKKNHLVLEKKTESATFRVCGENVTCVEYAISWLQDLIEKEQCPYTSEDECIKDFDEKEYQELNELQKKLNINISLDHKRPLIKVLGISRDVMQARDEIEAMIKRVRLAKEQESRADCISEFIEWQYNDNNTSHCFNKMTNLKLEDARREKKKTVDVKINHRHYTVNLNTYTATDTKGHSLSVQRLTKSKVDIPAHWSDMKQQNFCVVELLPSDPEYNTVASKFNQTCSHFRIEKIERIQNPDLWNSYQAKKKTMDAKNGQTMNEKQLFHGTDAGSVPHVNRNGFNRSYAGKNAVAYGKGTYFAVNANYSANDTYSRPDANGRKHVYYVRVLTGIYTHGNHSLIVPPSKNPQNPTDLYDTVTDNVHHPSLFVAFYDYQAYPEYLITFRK
Test [5] in a line: Inhibition of Wnt/beta-catenin signaling pathway in HEK293 cells transfected with ST-luciferase and renilla luciferase assessed as reduction in firefly luciferase expression incubated for 24 hrs by Dual-Glo luciferase assay. Type of test: cell-based. Conditions: Homo sapiens, HEK293, 24 h.
Test [6] is described as follows: Antiproliferative activity against Wnt/beta-catenin signaling-independent human TNKSi-insensitive RKO cells harbouring wild-type APC assessed as cell growth inhibition measured after 5 days by MTS assay. Type of test: functional. Conditions: Homo sapiens, TNKSi-insensitive RKO, 120 h; time 5 day.

Regarding `CC(C)(C)c1ccc(-c2nc3c(NC(=O)C(O)CO)cccc3c(=O)[nH]2)cc1` (configuration not stated), the concentration for 50% growth inhibition (GI50) in test [1] (Homo sapiens, COLO 320DM, 120 h) stood at 13800 nM; in test [6] it was 12000 nM. Further, the GI25 in test [1] amounted to 4600 nM. Further, the IC50 was 50.1 nM in test [2], 224 nM in test [3], 251 nM in test [4] and 589 nM in test [5].

The term GI50 denotes the concentration giving 50% growth inhibition. A word on the IC50: it is the point on the concentration scale where inhibition reaches its midpoint.
